The nature of series [1]: physchem.
A short description of series [2]: Determination of LD50. The following applies: mouse, in vivo; Balb/c female mice 3-5 months of age; ip (or iv) injection in physiological saline. On the procedure:
LD50 is determined in BALB/c female mice (weighing 20-25 g) following intraperitoneal (ip) injection, unless the compound tested has low lipophilicity and is very soluble, wherein intravenous (iv) administration is used. LD50 values at 1, 2, 5, and 60 days are determined by administering graded doses of the drug dissolved in physiological saline immediately prior to injection.

Series [3] in a line: physchem. The following applies: pH 7.4.
Series [4] can be described thus: Octanol-water partition coefficient (method of Fujita et al.). The following applies: pH 7.4.
Series [5] in a line: Solubility.

Values after ≈ are worked out from the molar mass of the structure shown. Structures can show the parent of a compound that is named as a salt.

From patent EP0478545B1, “1,2,4-BENZOTRIAZINE OXIDES AS RADIOSENSITIZERS AND SELECTIVE CYTOTOXIC AGENTS” (SRI INTERNATIONAL, priority 1989, dated 1991) come the findings set out here.

For orientation: solubility means how much of the substance goes into solution per volume. Read a low solubility as little dissolved substance. For orientation: LD50 means the dose at which mortality reaches 50%. High values mean a less toxic substance, low ones a more toxic substance. By logP is commonly meant the decadic logarithm of the partition coefficient of the neutral form, usually between octanol and water. Compound `Nc1n[n+]([O-])c2ccccc2[n+]1[O-]` [Compound 22] gave a solubility in series [1] of 13.5 mM (≈ 2410 µg/mL). The same compound yielded an LD50 in series [2] of 500 µmol/kg. For the same compound, in series [3], the logP was -0.32.
In series [4], `CCN(CC)CCNc1n[n+]([O-])c2cc([N+](=O)[O-])ccc2[n+]1[O-]` [Compound 21, 7-nitro-3-(2-N,N-diethylaminoethylamino)-1,2,4-benzotriazine 1,4-dioxide hydrochloride] returned a logP of -0.2.
`Nc1n[n+]([O-])c2cc([N+](=O)[O-])ccc2[n+]1[O-]` [Compound 14, 7-nitro-3-amino-1,2,4-benzotriazine 1,4-dioxide] yielded a log partition coefficient (logP) in series [4] (octanol/water) of -0.97. The compound further showed an LD50 in series [2] of 1000 µmol/kg. Besides, in series [5], the concentration in solution (solubility) was 2 mM (≈ 446 µg/mL).
